Measured values as given in patent publication US20110009376A1, “PROPHYLACTIC OR THERAPEUTIC AGENT FOR EYE DISEASE ACCOMPANIED BY OPTIC NERVE DISORDER” (priority 2008, published 2011).

How the values were obtained:
[1] = test system: photoreceptor cells (visual cells); conditions: ischemia/reperfusion rabbit model; cited from earlier work
[2] = test system: chick retinal cells; conditions: chick retinal cells in an embryonic stage; cited from earlier work
[3] = test system: cells in the retinal ganglion cell layer; test: Rat model of ischemia/reperfusion-induced retinal damage; assay type: in vivo; conditions: oral, twice daily for 12 days, eyes taken 7 days after ischemia/reperfusion
Procedure: The usefulness of Ebselen against retinal ischemia/reperfusion damage was evaluated using a rat model of ischemia/reperfusion-induced retinal damage (Ophthalmologica. 1991; 203: 138-147) as a model for studying an effect on retinal damage induced by ischemia/reperfusion.
A 1% (w/v) atropine sulfate hydrate ophthalmic solution (manufactured by Nihon Tenganyaku, Co. Ltd., product name: Nitten ATROPINE Ophthalmic Solution 1%) was instilled into the eye of a rat (Slc:SD, male, about 7 weeks old) to cause mydriasis, and general anesthesia was induced by allowing the rat to inhale a gas obtained by vaporizing 3% (v/v) halothane (manufactured by Takeda Pharmaceutical Company Limited., product name: Fluothane) by a mixed gas (2 L/min) of 100% (v/v) oxygen (0.5 L/min) and 100% (v/v) nitrous oxide (1.5 L/min), and the anesthesia was maintained under conditions of 1% (v/v) halothane. […] From the 8 sections, 3 sections were arbitrarily selected, and with respect to the selected sections, a photograph of the retina in the range of from 1 to 1.5 mm on the left or right side from the optic nerve head was taken, and the number of cells in the retinal ganglion cell layer was measured. […]

[4] = test system: NQO-1; test: Induction of gene expression in rat fetus-derived retinal neuron culture system (quantitative PCR); assay type: cell-based; conditions: mean ± standard deviation, normalized to GAPDH
Procedure: (§1) Test 1: Study of Ability to Induce Expression of Genes of Phase II Xenobiotic Metabolizing Enzyme and Antioxidant Enzyme using Rat Fetus-Derived Retinal Neuron Culture System
(§2) The ability of Ebselen to induce the expression of genes of a phase II xenobiotic metabolizing enzyme and an antioxidant enzyme was evaluated using a rat fetus-derived retinal neuron culture system (Brain Res. 2003; 967: 257-66) Incidentally, the rat fetus-derived retinal neuron culture system has been extensively used as a technique for culturing retinal neurons and has been widely used as one of the tools for studying optic nerve diseases such as glaucoma.
(§3) Retinal neurons of a rat fetus (Slc:Wistar/ST, 18 days old) were isolated and seeded onto a polyethyleneimine-coated plastic coverslip. Then, the cells were cultured for 3 days in an Eagle's minimum essential medium supplemented with 10% fetal bovine serum. Thereafter, a solvent (0.1% ethanol) or Ebselen was added thereto to give a final concentration of 25 μM, and the cells were incubated in the culture medium. Incidentally, the culture was performed under the conditions of 37° C. and 5% CO2. The culture medium was removed at each time point of 4, 8, or 12 hours after initiation of incubation. A mixed solution was prepared by adding 1% (v/v) β-mercaptoethanol (manufactured by BioRad, Cat No. 161-0710) to Buffer RLT attached to RNeasy Mini Kit (250) (manufactured by QIAGEN, Cat No. 74106), and the retinal neurons on the plastic coverslip were lysed with the thus prepared mixed solution. The total RNA was extracted from the resulting cell lysate according to the protocol attached to the RNeasy Mini Kit (250), and cDNA was synthesized using ExScript™ RT reagent Kit (manufactured by TAKARA, Cat No. RR035B). According to the protocol attached to SYBR Premix Ex Taq (Perfect Real Time) (manufactured by TAKARA, Cat No. RR041B), SYBR Premix Ex Taq (Perfect Real Time), ROX Reference Dye, the synthesized cDNA, and each primer pair of glyceraldehyde-3-phosphate dehydrogenase (hereinafter also referred to as “GAPDH”), GCLM, TRxR, HO-1, or NQO-1 (manufactured by Nihon Gene Research Laboratories Inc.) were mixed, and PCR reaction was performed using a quantitative PCR system (manufactured by Applied Biosystems, system name: ABI PRISM 7000), and the expression level of each of the genes of GAPDH, GCLM, TRxR, HO-1, and NQO-1 was measured. From the obtained results, a relative expression level of each target gene was calculated by normalizing the expression level of each target gene with the expression level of GAPDH which is a housekeeping gene according to the equation 1. Further, an induction ratio (%) of each target gene to the vehicle group was obtained by dividing the value of the expression level of each gene in the 25 μM Ebselen group by a mean value of the expression level of the same gene in the vehicle group according to the equation 2. Each data was shown as the mean±standard deviation of three independent experiments.
(§4) Relative expression level of each target gene=(Expression level of each gene/Expression level of GAPDH) [Equation 1]
(§5) Induction ratio of each target gene to vehicle group (%)=(Expression level of each gene in 25 μM Ebselen group/Expression level of each gene in vehicle group) [Equation 2]

[5] = test system: GCLM; test: as above; assay type: cell-based; conditions: mean ± standard deviation, normalized to GAPDH
Procedure: as §1, §2, §3, §4, §5

[6] = test system: HO-1; test: as above; assay type: cell-based; conditions: mean ± standard deviation, normalized to GAPDH
Procedure: as §1, §2, §3, §4, §5

[7] = test system: TRxR; test: as above; assay type: cell-based; conditions: mean ± standard deviation, normalized to GAPDH
Procedure: as §1, §2, §3, §4, §5

O=c1c2ccccc2[se]n1-c1ccccc1 [Ebselen, 2-phenyl-1,2-benzisoselenazol-3(2H)-one]
Effect on b-wave of the electroretinogram (ERG) after ischemia/reperfusion [1]: attenuated the reduction of the b-wave | Effect on cell death caused by glutamate excitotoxicity [2]: inhibited the cell death caused by glutamate excitotoxicity | Suppression ratio against decrease in the number of cells in retinal ganglion cell layer ([3]; 3 mg/kg/day): 38.0% | Suppression ratio against decrease in the number of cells in retinal ganglion cell layer ([3]; 30 mg/kg/day): 59.7% | Induction ratio of expression of NQO-1 gene in 25 μM Ebselen group to vehicle group ([4]; after 4 hours): 450 ± 74% | Induction ratio of expression of NQO-1 gene in 25 μM Ebselen group to vehicle group ([4]; after 8 hours): 937 ± 183% | Induction ratio of expression of NQO-1 gene in 25 μM Ebselen group to vehicle group ([4]; after 12 hours): 1266 ± 212% | Induction ratio of expression of GCLM gene in 25 μM Ebselen group to vehicle group ([5]; after 4 hours): 198 ± 18% | Induction ratio of expression of GCLM gene in 25 μM Ebselen group to vehicle group ([5]; after 8 hours): 194 ± 14% | Induction ratio of expression of GCLM gene in 25 μM Ebselen group to vehicle group ([5]; after 12 hours): 172 ± 13% | Induction ratio of expression of HO-1 gene in 25 μM Ebselen group to vehicle group ([6]; after 4 hours): 1263 ± 365% | Induction ratio of expression of HO-1 gene in 25 μM Ebselen group to vehicle group ([6]; after 8 hours): 1458 ± 307% | Induction ratio of expression of HO-1 gene in 25 μM Ebselen group to vehicle group ([6]; after 12 hours): 1311 ± 237% | Induction ratio of expression of TRxR gene in 25 μM Ebselen group to vehicle group ([7]; after 4 hours): 225 ± 11% | Induction ratio of expression of TRxR gene in 25 μM Ebselen group to vehicle group ([7]; after 8 hours): 193 ± 13% | Induction ratio of expression of TRxR gene in 25 μM Ebselen group to vehicle group ([7]; after 12 hours): 301 ± 26%
